Test results: patent US20230263822A1, “MODULATION OF FACTOR 11 EXPRESSION” (Ionis Pharmaceuticals, Inc., priority 2008, published 2023)
Strand notation (5' to 3'): a small letter for the sugar, then the base; units joined by * are phosphorothioate-linked, units joined directly phosphodiester-linked; [ ] holds rarer units or linkages, { } end groups; capitals alone tell only the bases. e = 2'-O-(2-methoxyethyl) (MOE); [5mC] = 5-methylcytosine; d = 2'-deoxy (DNA)

Columns and labels:
Type in all cases: cell-based
human Factor 11 mRNA [1] = assay: Antisense inhibition of human Factor 11 in HepG2 cells by microwalk gapmers, lipofectin, 75 nM (Example 3)
How it was run: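 HepG2 cells (10,000/well) were transfected via lipofectin with 75 nM 20-mer MOE gapmers (phosphorothioate, 5-methyl-C) for about 24 h. Factor 11 mRNA was measured by qRT-PCR, normalized to RIBOGREEN total RNA, and given as percent inhibition versus untreated cells.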

human Factor 11 mRNA [2] = assay: Dose-dependent inhibition of human Factor 11 in HepG2 cells, lipofectin 9.375-75 nM (Example 4); conditions: for percent inhibition of Factor 11 at 9.375 nM / percent inhibition of Factor 11 at 18.75 nM / percent inhibition of Factor 11 at 37.5 nM / percent inhibition of Factor 11 at 75 nM: relative to untreated control cells
Protocol: (§1) Cells were plated at a density of 10,000 cells per well and transfected using lipofectin reagent with 9.375 nM, 18.75 nM, 37.5 nM and 75 nM concentrations of antisense oligonucleotide, as specified in Table 9. After a treatment period of approximately 16 hours, RNA was isolated from the cells and Factor 11 mRNA levels were measured by quantitative real-time PCR. Human Factor 11 primer probe set RTS 2966 was used to measure mRNA levels. Factor 11 mRNA levels were adjusted according to total RNA content, as measured by RIBOGREEN. Results are presented as percent inhibition of Factor 11, relative to untreated control cells.

human Factor 11 mRNA [3] = assay: Dose-dependent inhibition of human Factor 11 in HepG2 cells, electroporation 0.7-20 uM (Example 4); conditions: for percent inhibition of Factor 11 at 0.7 μM / percent inhibition of Factor 11 at 2.2 μM / percent inhibition of Factor 11 at 6.7 μM / percent inhibition of Factor 11 at 20 μM: relative to untreated control cells
Protocol: as §1, with “The gapmers were also transfected via electroporation and their dose dependent inhibition of human Factor 11 mRNA was measured. Cells” for “Cells”, “20,000” for “10,000”, “via electroporation” for “using lipofectin reagent”, “0.7 μM, 2.2 μM, 6.7 μM,” for “9.375 nM, 18.75 nM, 37.5 nM”, “20 μM” for “75 nM”, “10.” for “9.”

[4] = HepG2 cells, lipofectin, gapmers targeted to nucleobases 1275 to 1318 of SEQ ID NO: 1
[5] = HepG2, lipofectin, ~24 h, gapmers targeted to nucleobases 656 to 704 of SEQ ID NO: 1
[6] = HepG2 cells, lipofectin, gapmers targeted to nucleobases 1018 to 1042 of SEQ ID NO: 1
[7] = HepG2 cells, lipofectin, gapmers targeted to nucleobases 1062 to 1091 of SEQ ID NO: 1

Row | Substance | % inhibition (human Factor 11 mRNA [1]; [4]) [%] | IC50 (human Factor 11 mRNA [2]) [nM] | percent inhibition of Factor 11 at 9.375 nM (human Factor 11 mRNA [2]) [%] | percent inhibition of Factor 11 at 18.75 nM (human Factor 11 mRNA [2]) [%] | percent inhibition of Factor 11 at 37.5 nM (human Factor 11 mRNA [2]) [%] | percent inhibition of Factor 11 at 75 nM (human Factor 11 mRNA [2]) [%] | IC50 (human Factor 11 mRNA [3]) [nM] | percent inhibition of Factor 11 at 0.7 μM (human Factor 11 mRNA [3]) [%] | percent inhibition of Factor 11 at 2.2 μM (human Factor 11 mRNA [3]) [%] | percent inhibition of Factor 11 at 6.7 μM (human Factor 11 mRNA [3]) [%] | percent inhibition of Factor 11 at 20 μM (human Factor 11 mRNA [3]) [%] | % inhibition (human Factor 11 mRNA [1]; [5]) [%] | % inhibition (human Factor 11 mRNA [1]; [6]) [%] | % inhibition (human Factor 11 mRNA [1]; [7]) [%]
1 | 416931 (antisense eG*eG*e[5mC]*dA*dT*dT*dG*dG*dT*dG*d[5mC]*dA*d[5mC]*dA*dG*dT*dT*eT*e[5mC]*eT) [compound 416931] | 96 | 22 | 44 | 39 | 57 | 71 | 5100 | 7 | 24 | 60 | 82 | – | – | –
2 | 416941 (antisense eG*eG*e[5mC]*dA*dG*d[5mC]*dG*dG*dA*d[5mC]*dG*dG*d[5mC]*dA*dT*dT*dG*eG*eT*eG) [compound 416941] | 95 | 19 | 33 | 54 | 63 | 78 | 3000 | 16 | 38 | 79 | 89 | – | – | –
3 | 416945 (antisense eA*eA*dT*dG*dT*d[5mC]*dT*dT*dT*dG*dT*dT*dG*d[5mC]*dA*eA*eG*e[5mC]*eG*e[5mC]) [compound 416945] | – | 24 | 34 | 45 | 62 | 65 | 600 | 48 | 70 | 81 | 88 | 94 | – | –
4 | 416969 (antisense eG*e[5mC]*d[5mC]*d[5mC]*dT*dT*d[5mC]*dA*dT*dG*dT*d[5mC]*dT*dA*dG*eG*eT*e[5mC]*e[5mC]*eA) [compound 416969] | – | 28 | 17 | 39 | 61 | 76 | 2500 | 25 | 34 | 86 | 92 | 80 | – | –
5 | 416972 (antisense eT*eA*dT*dG*d[5mC]*d[5mC]*d[5mC]*dT*dT*d[5mC]*dA*dT*dG*dT*d[5mC]*eT*eA*eG*eG*eT) [compound 416972] | – | 26 | 32 | 40 | 60 | 69 | 4300 | 25 | 30 | 48 | 88 | 90 | – | –
6 | 416973 (antisense eT*eT*dA*dT*dG*d[5mC]*d[5mC]*d[5mC]*dT*dT*d[5mC]*dA*dT*dG*dT*e[5mC]*eT*eA*eG*eG) [compound 416973] | – | 3 | 60 | 75 | 85 | 87 | 2300 | 20 | 48 | 86 | 93 | 92 | – | –
7 | 416984 (antisense e[5mC]*eA*dA*d[5mC]*d[5mC]*dG*dG*dG*dA*dT*dG*dA*dT*dG*dA*eG*eT*eG*e[5mC]*eA) [compound 416984] | – | 22 | 26 | 50 | 62 | 81 | 1100 | 43 | 54 | 88 | 90 | – | 89 | –
8 | 416985 (antisense eG*e[5mC]*dA*dA*d[5mC]*d[5mC]*dG*dG*dG*dA*dT*dG*dA*dT*dG*eA*eG*eT*eG*e[5mC]) [compound 416985] | – | 49 | 17 | 30 | 47 | 57 | 5800 | 12 | 48 | 45 | 69 | – | 88 | –
9 | 416989 (antisense eG*eA*dG*dA*dT*dT*d[5mC]*dT*dT*dT*dG*dG*dG*d[5mC]*d[5mC]*eA*eT*eT*e[5mC]*e[5mC]) [compound 416989] | – | 26 | 18 | 41 | 62 | 83 | 1300 | 32 | 65 | 88 | 94 | – | – | 88
10 | 416993 (antisense e[5mC]*eT*dT*dT*dG*dA*dG*dA*dT*dT*d[5mC]*dT*dT*dT*dG*eG*eG*e[5mC]*e[5mC]*eA) [compound 416993] | – | 36 | 15 | 37 | 50 | 68 | 2200 | 22 | 48 | 87 | 92 | – | – | 91
